Potassium content and Sodium content data for 2 substances are collected here from patent publication US6812223B2, “Crystalline glucosamine sulfate metal salts and processes for preparing the same” (Nicholas Piramal India Limited, priority 2000, dated 2004).

A short description of this series: Estimation of metal content in the mixed glucosamine sulphate metal salt (Inductively Coupled Plasma Method). The format is physicochemical. Particulars: ICP; for Potassium content: measured at 766.491 nm; for Sodium content: measured at 589.592 nm. The procedure:
Estimation of Metal Content in the Mixed Glucosamine Sulphate Metal Salt The sodium content in the mixed glucosamine sulphate sodium salt or the potassium content in the mixed glucosamine sulphate potassium salt respectively is estimated using Inductively Coupled Plasma Method. The sodium content was measured at 589.592 nm and the potassium content was measured at 766.491 nm. [table]

As for “Glucosamine Sulphate Potassium Salt (Low Potassium Content) [Example 2]”, the Potassium content was 7.16%. The Potassium content (listed as compound I (M+K)) is reported as 7.16%.
With “Glucosamine Sulphate Sodium Salt (Low Sodium Content) [Example 1]”, the Sodium content is 4.22%. The Sodium content (listed as compound I (M=Na)) was 4.22%.
